Measured values reported in US11179383B2 (Gilead Sciences, Inc., priority 2018, dated 2021).

molecular target: T1, α4β7 integrin (Homo sapiens, UniProt P13612+P26010); assay: α4β7 Integrin Cell Capture Assay; type: cell-based; settings: capture of α4β7 integrin expressing RPMI8866 cells on recombinant MadCAM-1 extracellular domain-coated plate; DMEM+0.5% FBS+0.5 mM MnCl2; read-out: EC50 α4β7
T1 construct: monitoring the capture of α4β7 integrin expressing cells on a recombinant MadCAM-1 extracellular domain-coated plate; endogenous in cells; host or cells: RPMI8866 cells
T1 sequence (P13612 34-1032): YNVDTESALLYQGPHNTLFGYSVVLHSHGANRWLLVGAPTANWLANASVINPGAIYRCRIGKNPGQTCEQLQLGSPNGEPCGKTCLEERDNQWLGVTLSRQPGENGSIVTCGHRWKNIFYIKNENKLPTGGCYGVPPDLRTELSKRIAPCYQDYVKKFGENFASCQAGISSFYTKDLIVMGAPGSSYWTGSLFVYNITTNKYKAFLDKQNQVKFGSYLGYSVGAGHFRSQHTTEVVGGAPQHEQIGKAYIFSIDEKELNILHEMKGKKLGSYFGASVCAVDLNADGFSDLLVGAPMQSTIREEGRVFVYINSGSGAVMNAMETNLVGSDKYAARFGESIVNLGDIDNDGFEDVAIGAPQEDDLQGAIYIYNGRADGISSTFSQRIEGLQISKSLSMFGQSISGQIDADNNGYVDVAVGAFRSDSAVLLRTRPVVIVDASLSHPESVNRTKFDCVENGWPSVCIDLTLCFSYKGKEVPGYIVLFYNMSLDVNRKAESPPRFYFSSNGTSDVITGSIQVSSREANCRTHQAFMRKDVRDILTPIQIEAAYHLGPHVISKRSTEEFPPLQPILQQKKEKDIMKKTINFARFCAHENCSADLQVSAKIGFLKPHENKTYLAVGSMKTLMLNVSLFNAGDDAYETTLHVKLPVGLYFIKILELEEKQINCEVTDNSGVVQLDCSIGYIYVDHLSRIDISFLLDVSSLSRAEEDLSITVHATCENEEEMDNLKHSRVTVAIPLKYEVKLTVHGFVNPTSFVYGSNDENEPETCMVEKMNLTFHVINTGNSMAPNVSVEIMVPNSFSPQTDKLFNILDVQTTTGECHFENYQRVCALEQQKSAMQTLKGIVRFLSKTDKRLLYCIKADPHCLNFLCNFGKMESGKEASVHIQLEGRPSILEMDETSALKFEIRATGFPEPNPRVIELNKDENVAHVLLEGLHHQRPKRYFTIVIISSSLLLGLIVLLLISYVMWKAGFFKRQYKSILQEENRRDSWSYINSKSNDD
T1 sequence (P26010 20-798): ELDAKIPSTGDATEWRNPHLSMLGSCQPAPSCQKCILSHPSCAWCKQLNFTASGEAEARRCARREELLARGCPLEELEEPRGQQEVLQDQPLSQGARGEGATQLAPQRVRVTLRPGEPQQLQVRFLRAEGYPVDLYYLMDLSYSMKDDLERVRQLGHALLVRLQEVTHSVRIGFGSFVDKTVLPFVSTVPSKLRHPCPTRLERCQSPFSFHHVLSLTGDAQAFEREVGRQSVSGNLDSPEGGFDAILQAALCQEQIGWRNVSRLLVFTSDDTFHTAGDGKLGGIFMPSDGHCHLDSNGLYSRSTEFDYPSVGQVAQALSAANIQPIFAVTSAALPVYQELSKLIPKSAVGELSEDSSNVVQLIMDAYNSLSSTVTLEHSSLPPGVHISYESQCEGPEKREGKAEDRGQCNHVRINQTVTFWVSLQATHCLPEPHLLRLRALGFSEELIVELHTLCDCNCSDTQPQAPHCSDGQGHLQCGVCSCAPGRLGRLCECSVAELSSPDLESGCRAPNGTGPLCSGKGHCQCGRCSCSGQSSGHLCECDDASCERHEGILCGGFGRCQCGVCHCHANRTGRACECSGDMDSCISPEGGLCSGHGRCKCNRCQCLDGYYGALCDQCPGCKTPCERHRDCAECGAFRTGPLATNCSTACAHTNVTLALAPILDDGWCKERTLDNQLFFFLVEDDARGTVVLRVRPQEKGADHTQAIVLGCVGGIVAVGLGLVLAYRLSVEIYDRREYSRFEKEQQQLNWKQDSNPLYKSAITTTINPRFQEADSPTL
Procedure: α4β7 Integrin Cell Capture Assay
The potency of inhibitors in preventing α4β7 integrin interaction with MadCAM-1 was measured by monitoring the capture of α4β7 integrin expressing cells on a recombinant MadCAM-1 extracellular domain-coated plate.
384-Well plates (Corning 3702) were coated with MadCAM-1 extracellular domain by dispensing 20 μL of MAdCAM-1 at 1.0 μg/mL per well and incubating overnight at 4° C. The plates were then washed with PBS and blocked with 3% BSA for 2 hours before being washed again.
RPMI8866 cells were spun down and re-suspended in assay medium (DMEM+0.5% FBS+0.5 mM MnCl2) at a density of 0.5×10^6 cells/mL. The cells were then dispensed (60 μL/well) to a 384-well plate (Greiner 781280) that was previously spotted with 60 nL of test compound per well. The plates were incubated at 37° C. for 1 hour. 50 μL of cells were transferred to the blocked, MadCAM-1-coated plates and incubated for 30 minutes at 37° C. 10 μL of 12% glutaraldehyde containing Hoechst 33342 (0.06 mg/mL) was added to the cells (2% glutaraldehyde and 0.01 mg/mL final concentrations). The plates were incubated for 90 minutes at room temperature. The plates were then washed 3 times with 70 μL of PBS per well and imaged on a Cellomics ArrayScan instrument. The cells that were bound to the plate were counted and plotted against the compound concentration to determine the EC50 of the test compounds.

Compound	EC50
COc1cccc(OC)c1-c1ccc(C[C@H](NC(=O)c2c(F)cc(NS(=O)(=O)c3ccc(-n4cncn4)cc3)cc2F)C(=O)O)c2ccncc12 (single isomer, unassigned) [Example 164]	1.3 nM
COc1cccc(OC)c1-c1ccc(C[C@@H](NC(=O)c2c(F)cc(NS(=O)(=O)c3ccc(-n4cncn4)cc3)cc2F)C(=O)O)c2ccncc12 (single isomer, unassigned) [Example 165]	37.8 nM
O=C(N[C@@H](Cc1ccc(-c2c(Cl)cc(F)cc2Cl)c2cccnc12)C(=O)O)c1c(F)cccc1F [Example 1, (S)-3-(5-(2,6-dichloro-4-fluorophenyl)quinolin-8-yl)-2-(2,6-difluorobenzamido)propanoic acid]	210 nM
COc1cccc(F)c1C(=O)N[C@@H](Cc1ccc(-c2c(Cl)cc(F)cc2Cl)c2cccnc12)C(=O)O [Example 2, (S)-3-(5-(2,6-dichloro-4-fluorophenyl)quinolin-8-yl)-2-(2-fluoro-6-methoxybenzamido)propanoic acid]	417 nM
O=C(N[C@@H](Cc1ccc(-c2c(Cl)cc(F)cc2Cl)c2cccnc12)C(=O)O)c1c(F)cc(N[C@H](c2ccccc2)C(F)(F)F)cc1F [Example 3, (S)-3-(5-(2,6-dichloro-4-fluorophenyl)quinolin-8-yl)-2-(2,6-difluoro-4-(((R)-2,2,2-trifluoro-1-phenylethyl)amino)benzamido)propanoic acid]	393 nM
CS(=O)(=O)Nc1cc(F)c(C(=O)N[C@@H](Cc2ccc(-c3c(Cl)cc(F)cc3Cl)c3cccnc23)C(=O)O)c(F)c1 [Example 4, (S)-3-(5-(2,6-dichloro-4-fluorophenyl)quinolin-8-yl)-2-(2,6-difluoro-4-(methylsulfonamido)benzamido)propanoic acid]	26 nM
O=C(N[C@@H](Cc1ccc(-c2c(Cl)cc(F)cc2Cl)c2cccnc12)C(=O)O)c1c(Cl)cccc1Cl [Example 7, (S)-3-(5-(2,6-dichloro-4-fluorophenyl)quinolin-8-yl)-2-(2,6-dichlorobenzamido)propanoic acid]	522 nM
Cc1c(-c2ccc(C[C@H](NC(=O)c3c(Cl)cccc3Cl)C(=O)O)c3ncccc23)c(=O)n(C)c2ccc(F)cc12 [Example 10, (S)-2-(2,6-dichlorobenzamido)-3-(6-fluoro-1,4-dimethyl-2-oxo-1,2-dihydro-[3,5′-biquinolin]-8′-yl)propanoic acid]	1.1 nM
COc1cc(F)cnc1-c1ccc(C[C@H](NC(=O)c2c(Cl)cccc2Cl)C(=O)O)c2ncccc12 [Example 13, (S)-2-(2,6-dichlorobenzamido)-3-(5-(5-fluoro-3-methoxypyridin-2-yl)quinolin-8-yl)propanoic acid]	66.9 nM
O=C(N[C@@H](Cc1ccc(-c2cccc3scnc23)c2cccnc12)C(=O)O)c1c(Cl)cccc1Cl [Example 14, (S)-3-(5-(benzo[d]thiazol-4-yl)quinolin-8-yl)-2-(2,6-dichlorobenzamido) propanoic acid]	57.7 nM
O=C(N[C@@H](Cc1ccc(-c2nccnc2C(F)(F)F)c2cccnc12)C(=O)O)c1c(Cl)cccc1Cl [Example 15, (S)-2-(2,6-dichlorobenzamido)-3-(5-(3-(trifluoromethyl)pyrazin-2-yl)quinolin-8-yl)propanoic acid]	85 nM
Cc1cc(C(F)(F)F)c(-c2ccc(C[C@H](NC(=O)c3c(Cl)cccc3Cl)C(=O)O)c3ncccc23)nn1 [Example 16, (S)-2-(2,6-dichlorobenzamido)-3-(5-(6-methyl-4-(trifluoromethyl)pyridazin-3-yl)quinolin-8-yl)propanoic acid]	144 nM
Cn1cc(-c2ccc(C[C@H](NC(=O)c3c(Cl)cccc3Cl)C(=O)O)c3ncccc23)c(C(F)(F)F)n1 [Example 17, (S)-2-(2,6-dichlorobenzamido)-3-(5-(1-methyl-3-(trifluoromethyl)-1H-pyrazol-4-yl)quinolin-8-yl)propanoic acid]	356 nM
Cc1c(-c2ccc(C[C@H](NC(=O)c3c(Cl)cccc3Cl)C(=O)O)c3ncccc23)c(C(F)(F)F)nn1C [Example 18, (S)-2-(2,6-dichlorobenzamido)-3-(5-(1,5-dimethyl-3-(trifluoromethyl)-1H-pyrazol-4-yl)quinolin-8-yl)propanoic acid]	416 nM
Cn1cc(F)cc(-c2ccc(C[C@H](NC(=O)c3c(Cl)cccc3Cl)C(=O)O)c3ncccc23)c1=O [Example 19, (S)-2-(2,6-dichlorobenzamido)-3-(5-(5-fluoro-1-methyl-2-oxo-1,2-dihydropyridin-3-yl)quinolin-8-yl)propanoic acid]	26.3 nM
O=C(N[C@@H](Cc1ccc(-c2cccc3c2COCC3)c2cccnc12)C(=O)O)c1c(Cl)cccc1Cl [Example 20, (S)-2-(2,6-dichlorobenzamido)-3-(5-(isochroman-8-yl)quinolin-8-yl)propanoic acid]	374 nM
Cn1c(=O)c(-c2ccc(C[C@H](NC(=O)c3c(Cl)cccc3Cl)C(=O)O)c3ncccc23)cc2ccccc21 [Example 21, (S)-2-(2,6-dichlorobenzamido)-3-(1-methyl-2-oxo-1,2-dihydro-[3,5′-biquinolin]-8′-yl)propanoic acid]	5.8 nM
CCn1cccc(-c2ccc(C[C@H](NC(=O)c3c(Cl)cccc3Cl)C(=O)O)c3ncccc23)c1=O [Example 22, (S)-2-(2,6-dichlorobenzamido)-3-(5-(1-ethyl-2-oxo-1,2-dihydropyridin-3-yl)quinolin-8-yl)propanoic acid]	123 nM
Cn1cc(C(F)(F)F)cc(-c2ccc(C[C@H](NC(=O)c3c(Cl)cccc3Cl)C(=O)O)c3ncccc23)c1=O [Example 23, (S)-2-(2,6-dichlorobenzamido)-3-(5-(1-methyl-2-oxo-5-(trifluoromethyl)-1,2-dihydropyridin-3-yl)quinolin-8-yl)propanoic acid]	18.5 nM
O=C(N[C@@H](Cc1ccc(-c2cccc3c2OCCC3)c2cccnc12)C(=O)O)c1c(Cl)cccc1Cl [Example 24, (S)-3-(5-(chroman-8-yl)quinolin-8-yl)-2-(2,6-dichlorobenzamido)propanoic acid]	49.5 nM
O=C(N[C@@H](Cc1ccc(-c2ncc3ccccc3c2Br)c2cccnc12)C(=O)O)c1c(Cl)cccc1Cl [Example 25, (S)-3-(5-(4-bromoisoquinolin-3-yl)quinolin-8-yl)-2-(2,6-dichlorobenzamido)propanoic acid]	20 nM
